US9975876B2, “2-pyridyloxy-3-ester-4-ether orexin receptor antagonists” (MERCK SHARP & DOHME CORP., priority 2013, dated 2018)

Experiments:
[1] = biological target: human orexin-2 receptor (Homo sapiens (Human), UniProt O43614); assay: FLIPR Ca2+ flux assay, orexin-2 receptor antagonism; format: cell-based; conditions: CHO cells; agonist 70 pM Ala-6,12 human orexin-A; read-out: hOX2R FLIPR IC50
Experimental: In a typical experiment the OX1 and OX2 receptor antagonistic activity of the compounds of the present invention was determined in accordance with the following experimental method. For intracellular calcium measurements, Chinese hamster ovary (CHO) cells expressing the rat orexin-1 receptor or the human orexin-2 receptor, are grown in Iscove's modified DMEM containing 2 mM L-glutamine, […], 1% hypoxanthine-thymidine supplement, 100 U/ml penicillin, 100 μg/ml streptomycin and 10% heat-inactivated fetal calf serum (FCS). The cells are seeded at 20,000 cells/well into Becton-Dickinson black 384-well clear bottom sterile plates coated with poly-D-lysine. All reagents were from GIBCO-Invitrogen Corp. The seeded plates are incubated overnight at 37° C. and 5% CO2. Ala-6,12 human orexin-A as the agonist is prepared as a 1 mM stock solution in 1% bovine serum albumin (BSA) and diluted in assay buffer (HBSS containing 20 mM HEPES, 0.1% BSA and 2.5 mM probenecid, pH7.4) for use in the assay at a final concentration of 70 pM. Test compounds are prepared as 10 mM stock solution in DMSO, then diluted in 384-well plates, first in DMSO, then assay buffer. On the day of the assay, cells are washed 3 times with 100 μl assay buffer and then incubated for 60 min (37° C., 5% CO2) in 60 μl assay buffer containing 1 μM Fluo-4AM ester, 0.02% pluronic acid, and 1% BSA. The dye loading solution is then aspirated and cells are washed 3 times with 100 μl assay buffer. 30 μl of that same buffer is left in each well. Within the Fluorescent Imaging Plate Reader (FLIPR, Molecular Devices), test compounds are added to the plate in a volume of 25 μl, incubated for 5 min and finally 25 μl of agonist is added. Fluorescence is measured for each well at 1 second intervals for 5 minutes and the height of each fluorescence peak is compared to the height of the fluorescence peak induced by 70 pM Ala-6,12 orexin-A with buffer in place of antagonist. […] The intrinsic orexin receptor antagonist activity of a compound which may be used in the present invention may be determined by these assays.

[2] = biological target: hOX1R (Homo sapiens, UniProt O43613); assay: FLIPR Ca2+ flux assay, orexin-1 receptor antagonism; format: cell-based; conditions: CHO cells; agonist 70 pM Ala-6,12 human orexin-A

Sequence of human orexin-2 receptor (O43614 whole entry): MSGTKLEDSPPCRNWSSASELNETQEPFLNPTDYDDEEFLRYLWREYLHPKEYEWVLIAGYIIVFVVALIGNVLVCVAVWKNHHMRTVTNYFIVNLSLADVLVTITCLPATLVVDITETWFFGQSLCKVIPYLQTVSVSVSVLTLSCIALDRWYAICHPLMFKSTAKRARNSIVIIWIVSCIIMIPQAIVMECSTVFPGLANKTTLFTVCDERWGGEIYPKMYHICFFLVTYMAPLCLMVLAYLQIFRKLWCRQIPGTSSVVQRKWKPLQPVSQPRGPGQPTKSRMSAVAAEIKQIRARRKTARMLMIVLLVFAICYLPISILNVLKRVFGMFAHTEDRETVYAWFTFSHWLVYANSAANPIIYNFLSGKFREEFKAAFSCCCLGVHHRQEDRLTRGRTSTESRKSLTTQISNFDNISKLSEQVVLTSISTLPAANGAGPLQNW

Row | SMILES | IC50 [1] | IC50 [2]
1 | COC(=O)c1c(OC)ccnc1O[C@@H]1CC[C@@H](C)N(C(=O)c2ccccc2-n2nccn2)C1 [Example 1, Methyl 4-methoxy-2-{[(3R,6R)-6-methyl-1-{[2-(2H-1,2,3-triazol-2-yl)phenyl]carbonyl}piperidin-3-yl]oxy}pyridine-3-carboxylate] | 33 nM | 1340 nM
2 | COC(=O)c1c(OC)ccnc1O[C@@H]1CC[C@@H](C)N(C(=O)c2cccc(F)c2-n2nccn2)C1 [Example 2, Methyl 2-{[(3R,6R)-1-{[3-fluoro-2-(2H-1,2,3-triazol-2-yl)phenyl]carbonyl}-6-methylpiperidin-3-yl]oxy}-4-methoxypyridine-3-carboxylate] | 37 nM | 2900 nM
3 | COC(=O)c1c(OC)ccnc1O[C@@H]1CC[C@@H](C)N(C(=O)c2ccc(Cl)cc2-n2nccn2)C1 [Example 3] | 33.6 nM | 1420 nM
4 | COC(=O)c1c(OC)ccnc1O[C@@H]1CC[C@@H](C)N(C(=O)c2ccc(F)cc2-n2nccn2)C1 [Example 4, methyl 2-{[(3R,6R)-1-{[4-fluoro-2-(2H-1,2,3-triazol-2-yl)phenyl]carbonyl}-6-methylpiperidin-3-yl]oxy}-4-methoxypyridine-3-carboxylate] | 764 nM | 3200 nM
5 | COC(=O)c1c(OC)ccnc1O[C@@H]1CC[C@@H](C)N(C(=O)c2ccc(F)cc2-c2nc(C)no2)C1 [Example 5, methyl 2-{[(3R,6R)-1-{[4-fluoro-2-(3-methyl-1,2,4-oxadiazol-5-yl)phenyl]carbonyl}-6-methylpiperidin-3-yl]oxy}-4-methoxypyridine-3-carboxylate] | 52 nM | 3100 nM
6 | COC(=O)c1c(OC)ccnc1O[C@@H]1CC[C@@H](C)N(C(=O)c2c(F)cccc2-n2nccn2)C1 [Example 6, methyl 2-{[(3R,6R)-1-{[2-fluoro-6-(2H-1,2,3-triazol-2-yl)phenyl]carbonyl}-6-methylpiperidin-3-yl]oxy}-4-methoxypyridine-3-carboxylate] | 82.9 nM | 2310 nM
7 | COC(=O)c1c(OC)ccnc1O[C@@H]1CC[C@@H](C)N(C(=O)c2cc(F)ccc2-n2nccn2)C1 [Example 7, methyl 2-{[(3R,6R)-1-{[5-fluoro-2-(2H-1,2,3-triazol-2-yl)phenyl]carbonyl}-6-methylpiperidin-3-yl]oxy}-4-methoxypyridine-3-carboxylate] | 27.6 nM | 1460 nM
8 | COC(=O)c1c(OC)ccnc1O[C@@H]1CC[C@@H](C)N(C(=O)c2c(F)cccc2-c2noc(C)n2)C1 [Example 8, methyl 2-{[(3R,6R)-1-{[2-fluoro-6-(5-methyl-1,2,4-oxadiazol-3-yl)phenyl]carbonyl}-6-methylpiperidin-3-yl]oxy}-4-methoxypyridine-3-carboxylate] | 71.1 nM | 10000 nM
9 | COC(=O)c1c(OC)ccnc1O[C@@H]1CC[C@@H](C)N(C(=O)c2cc(F)ccc2-c2noc(C)n2)C1 [Example 9] | 36.7 nM | 1500 nM
10 | COC(=O)c1c(OC)ccnc1O[C@@H]1CC[C@@H](C)N(C(=O)c2ccc(F)cc2-c2noc(C)n2)C1 [Example 10, methyl 2-{[(3R,6R)-1-{[4-fluoro-2-(5-methyl-1,2,4-oxadiazol-3-yl)phenyl]carbonyl}-6-methylpiperidin-3-yl]oxy}-4-methoxypyridine-3-carboxylate] | 58.7 nM | 10000 nM
11 | COC(=O)c1c(OC)ccnc1O[C@@H]1CC[C@@H](C)N(C(=O)c2cccc(F)c2-c2noc(C)n2)C1 [Example 11, methyl 2-{[(3R,6R)-1-{[3-fluoro-2-(5-methyl-1,2,4-oxadiazol-3-yl)phenyl]carbonyl}-6-methylpiperidin-3-yl]oxy}-4-methoxypyridine-3-carboxylate] | 31.8 nM | 2270 nM
12 | COC(=O)c1c(OC)ccnc1O[C@@H]1CC[C@@H](C)N(C(=O)c2c(F)cccc2-c2nc(C)no2)C1 [Example 12, methyl 2-{[(3R,6R)-1-{[2-fluoro-6-(3-methyl-1,2,4-oxadiazol-5-yl)phenyl]carbonyl}-6-methylpiperidin-3-yl]oxy}-4-methoxypyridine-3-carboxylate] | – | 4470 nM
13 | COC(=O)c1c(OC)ccnc1O[C@@H]1CC[C@@H](C)N(C(=O)c2cc(F)ccc2-c2nc(C)no2)C1 [Example 13, methyl 2-{[(3R,6R)-1-{[5-fluoro-2-(3-methyl-1,2,4-oxadiazol-5-yl)phenyl]carbonyl}-6-methylpiperidin-3-yl]oxy}-4-methoxypyridine-3-carboxylate] | 34.6 nM | 1160 nM
14 | COC(=O)c1c(OC)ccnc1O[C@@H]1CC[C@@H](C)N(C(=O)c2cccc(C)c2-n2nccn2)C1 [Example 14, methyl 4-methoxy-2-{[(3R,6R)-6-methyl-1-{[3-methyl-2-(2H-1,2,3-triazol-2-yl)phenyl]carbonyl}piperidin-3-yl]oxy}pyridine-3-carboxylate] | 37.9 nM | 777 nM
15 | COC(=O)c1c(OC)ccnc1O[C@@H]1CC[C@@H](C)N(C(=O)c2ccc(OC)cc2-n2nccn2)C1 [Example 15, methyl 4-methoxy-2-{[(3R,6R)-1-{[4-methoxy-2-(2H-1,2,3-triazol-2-yl)phenyl]carbonyl}-6-methylpiperidin-3-yl]oxy}pyridine-3-carboxylate] | 51 nM | 10000 nM
16 | COC(=O)c1c(OC)ccnc1O[C@@H]1CC[C@@H](C)N(C(=O)c2ccc(OC)nc2-n2nccn2)C1 [Example 17, methyl 4-methoxy-2-{[(3R,6R)-1-{[6-methoxy-2-(2H-1,2,3-triazol-2-yl)pyridin-3-yl]carbonyl}-6-methylpiperidin-3-yl]oxy}pyridine-3-carboxylate] | 52 nM | 10000 nM
17 | COC(=O)c1c(OC)ccnc1O[C@@H]1CC[C@@H](C)N(C(=O)c2cccc(F)c2-c2nc(C)no2)C1 [Example 18, methyl 2-{[(3R,6R)-1-{[3-fluoro-2-(3-methyl-1,2,4-oxadiazol-5-yl)phenyl]carbonyl}-6-methylpiperidin-3-yl]oxy}-4-methoxypyridine-3-carboxylate] | 39.5 nM | 932 nM
18 | COC(=O)c1c(OC)ccnc1O[C@@H]1CC[C@@H](C)N(C(=O)c2ccccc2-c2ncccn2)C1 [Example 19] | 114 nM | 1870 nM
19 | COC(=O)c1c(OC)ccnc1O[C@@H]1CC[C@@H](C)N(C(=O)c2ccc(F)cc2-c2ncccn2)C1 [Example 21, methyl 2-({(3R,6R)-1-[(4-fluoro-2-pyrimidin-2-ylphenyl)carbonyl]-6-methylpiperidin-3-yl}oxy)-4-methoxypyridine-3-carboxylate] | 71.2 nM | 1460 nM
20 | COC(=O)c1c(OC)ccnc1O[C@@H]1CC[C@@H](C)N(C(=O)c2cccc(F)c2-c2ncccn2)C1 [Example 22, methyl 2-({(3R,6R)-1-[(3-fluoro-2-pyrimidin-2-ylphenyl)carbonyl]-6-methylpiperidin-3-yl}oxy)-4-methoxypyridine-3-carboxylate] | 117 nM | 3780 nM
21 | COC(=O)c1c(OC)ccnc1O[C@@H]1CC[C@@H](C)N(C(=O)c2ccccc2-n2ncnn2)C1 [Example 23, Methyl 4-methoxy-2-{[(3R,6R)-6-methyl-1-{[2-(2H-tetrazol-2-yl)phenyl]carbonyl}piperidin-3-yl]oxy}pyridine-3-carboxylate] | 27.7 nM | 2140 nM
22 | CCOC(=O)c1c(OC)ccnc1O[C@@H]1CC[C@@H](C)N(C(=O)c2ccccc2-n2nccn2)C1 [Example 25, ethyl 4-methoxy-2-{[(3R,6R)-6-methyl-1-{[2-(2H-1,2,3-triazol-2-yl)phenyl]carbonyl}piperidin-3-yl]oxy}pyridine-3-carboxylate] | 19.3 nM | 814 nM
23 | CCOC(=O)c1c(OC)ccnc1O[C@@H]1CC[C@@H](C)N(C(=O)c2cccc(F)c2-n2nccn2)C1 [Example 26] | 39.6 nM | 2790 nM
24 | CCOc1ccnc(O[C@@H]2CC[C@@H](C)N(C(=O)c3ccccc3-n3nccn3)C2)c1C(=O)OC [Example 27, Methyl 4-ethoxy-2-{[(3R,6R)-6-methyl-1-{[2-(2H-1,2,3-triazol-2-yl)phenyl]carbonyl}piperidin-3-yl]oxy}pyridine-3-carboxylate] | 167 nM | 7000 nM
25 | CCOC(=O)c1c(OCC)ccnc1O[C@@H]1CC[C@@H](C)N(C(=O)c2ccccc2-n2ncnn2)C1 [Example 28, Ethyl 4-ethoxy-2-{[(3R,6R)-6-methyl-1-{[2-(2H-tetrazol-2-yl)phenyl]carbonyl}piperidin-3-yl]oxy}pyridine-3-carboxylate] | 18 nM | 4130 nM
